Measurements from patent publication US20050106305A1, “Beverage compositions comprising monatin and methods of making same” (Cargill, Inc., priority 2003, published 2005).

Legend:
Format in all cases: in vivo
[1] = Sweetness comparison procedure against sucrose reference solutions, trained sensory evaluators; details: determined at approximately 8% SEV
Protocol: The S,S stereoisomer of monatin is approximately 50-200 times sweeter than sucrose by weight. The R,R stereoisomer of monatin is approximately 2000-2400 times sweeter than sucrose by weight. The sweetness of the monatin is calculated using experienced sensory evaluators in a sweetness comparison procedure, where a test sweetener solution is matched for sweetness intensity against one of a series of reference solutions. The solutions may be prepared, for example, using a buffer comprising 0.16% (w/v) citric acid and 0.02% (w/v) sodium citrate at ˜pH 3.0.
Specifically, one may assess sweetness of a sweetener relative to sucrose by using a panel of trained sensory evaluators experienced in the sweetness estimation procedure. All samples (in same buffers) are served in duplicate at a temperature of 22° C. ±1° C. Sample solutions may be prepared, for example, using a buffer comprising 0.16% (w/v) citric acid and 0.02% (w/v) sodium citrate at ˜pH 3.0. Test solutions, coded with 3 digit random number codes, are presented individually to panelists, in random order. Sucrose reference standards, ranging from 2.0-10.0% (w/v) sucrose, increasing in steps of 0.5% (w/v) sucrose are also provided. Panelists are asked to estimate sweetness by comparing the sweetness of the test solution to the sucrose standards. This is carried out by taking 3 sips of the test solution, followed by a sip of water, followed by 3 sips of sucrose standard followed by a sip of water, etc. Panelists estimate the sweetness to one decimal place, e.g., 6.8, 8.5. A five minute rest period is imposed between evaluating the test solutions. Panelists are also asked to rinse well and eat a cracker to reduce any potential carry over effects.
Sucrose equivalent value (SEV) (e.g., % sucrose), determined by the panel of trained sensory evaluators, is plotted as a function of monatin concentration to obtain a dose response curve. A polynomial curve fit is applied to the dose response curve and used to calculate the sweetness intensity or potency at a particular point, e.g., 8% SEV, by dividing the sucrose equivalent value (SEV) by the monatin concentration (e.g., % monatin). See e.g., FIG. 15 (R,R/S,S monatin dose response curve); FIG. 14 (R,R monatin dose response curve). The above-mentioned sweetness intensities for S,S and R,R monatin (i.e., approximately 50-200 times sweeter and approximately 2000-2400 times sweeter than sucrose by weight, respectively) were determined at approximately 8% SEV.

[2] = Time intensity profile in a soft drink system; details: 80 ppm monatin, 10.0% sucrose, 200 ppm sucralose, pH 3.2 model soft drink; for Intensity of Maximum Sweetness: scale 0-100
Protocol: Solutions of 80 ppm monatin (racemic mix of monatin described in Example 14), 10.0% (w/v) sucrose and 200 ppm sucralose were prepared in the pH 3.2 model soft drink system described in Example 14. The time intensity profile of these solutions then was assessed using the following procedure. Six panelists were included in the study. These panelists were screened for their general sensory acuity and selected for their sensitivity to sweetness intensity and sweetness quality differences. All were experienced in methods of sweetener assessment and had received special training in time intensity evaluations. Training sessions were carried out initially to familiarize the panel with the method of evaluation and scoring the samples over time using a computerized data entry system.
Samples of each solution (13 mL) were coded and presented individually to panelists, in random order. For each panelist, immediately after swallowing, the computer recorded timed intensity readings on the scale of 0-100 each second, up to 60 seconds. Each solution was evaluated in duplicate.

[3] = Taste profiling of monatin/carbohydrate blends
Protocol: The quality of equisweet monatin/carbohydrate (50:50) blends then was assessed relative to sucrose by a small panel of trained assessors. This evaluation was carried out “double blind.” The sucrose-sweetened system was identified as the control and all other products randomly coded. Panelists were asked to assess the randomly coded sample relative to the control for the following attributes: Sweetness Profile: Onset, build and decay; Flavor Profile: Acidity, bitterness and other characteristics; Mouthfeel; and Aftertaste. Panelists also were asked to assign a score (1; poor-5; good) for the quality of the sweetener system. A summary of the comments made and scores given is presented as Table 10.

[4] = Taste profiling of lemon/lime carbonates and colas; details: HFCS 10%, aspartame 500 ppm, sucralose 200 ppm, blends 30.8 ppm/5.0%; for Average Score: score 1, poor-5, good, sucrose 10%
Protocol: Cola and lemon/lime beverages were prepared using the following formulations and sweetened with sucrose, HFCS (55% fructose), aspartame, sucralose, monatin (racemic mix described in Example 14), monatin/sucrose, or monatin/HFCS. One part of syrup was added to 5.5 parts carbonated water and evaluated.
Assessments were carried out ‘double blind’ by a panel of trained tasters. The sucrose-sweetened product was identified as the control and all other products randomly coded. Panelists were asked to assess the randomly coded sample relative to the control for the following attributes:
Panelists also were asked assign a score (1; poor-5; good) for the quality of the sweetener system. A summary of the comments generated together with the average score awarded is presented in Tables 12 and 13 for lemon/lime carbonates and colas, respectively. […] Blends of monatin/carbohydrate rated higher. In the cola, monatin was similar to aspartame.

[5] = Sensory evaluation of sweeteners in coffee and iced tea; details: 200 mL serving
Protocol: Monatin sweetener formulations, comprising R,R monatin or R,R monatin/erythritol combinations, were assessed relative to other known sweeteners (aspartame and sucralose) in coffee and iced tea. The key sensory parameters assessed included sweetness quality, aftertaste, bitter taste and its aftertaste. Qualitative evaluation was carried out.
Standard coffee was used in which to evaluate sweetener performance (Table 17).
Sweeteners were added to coffee at the following concentrations:
An ice tea formulation was developed to evaluate sweetener performance (Table 18).
Sweeteners were added to tea at the following concentrations:
The evaluation of these coffee and tea drinks was carried out by a panel (n=6) of experienced sensory evaluators who evaluated the coffee products on one tasting occasion and the tea products on a subsequent occasion.

[6] = Sensory evaluation of soft drinks (lemon/lime, orangeade, cola)
Protocol: Beverages (cola, lemon-lime and orange) were formulated and sweetened with aspartame, sucralose or R,R monatin. Qualitative evaluation was carried out.
The term “throw” refers to dilution in water. For example, a throw of “1+4” means 1 part concentrate formulation to 4 parts water. Thus, if a concentrate formulation includes 0.021% wt/vol (i.e., 210 ppm) of R,R monatin, for example, a throw of 1+4 makes a diluted beverage containing 42 ppm (210 ppm/5) R,R monatin.
Final ready-to-drink beverages (after throw) contained sweetener concentrations as follows:
Evaluation of these soft drinks was carried out by a panel (n=6) of assessors who evaluated each set of drinks on separate tasting occasions.

[7] = equisweet monatin/carbohydrate (50:50) blends relative to sucrose control
[8] = cola, sucrose 10% (control), monatin 80 ppm
[9] = lemon/lime carbonate, sucrose 10% (control), monatin 67 ppm
[10] = lemon/lime carbonate, monatin 67 ppm

Structure (SMILES) | times sweeter than sucrose by weight [1] | Area Under Curve [2] [unit × s] | Rate of Decline [2] [unit/s] | Rate of Onset [2] [unit/s] | Time for Sweetness to Decline to Half Maximum Value [2] [s] | Time to Half Maximum Sweetness [2] [s] | Time to Maximum Sweetness [2] [s] | Intensity of Maximum Sweetness [2] [unit] | Flavor Profile [4, 8] | Aftertaste [4, 9] | Flavor Profile [4, 9] | Average Score ([4]; cola, monatin 80 ppm) | Average Score [4, 10] | further results
NC(CC(O)(Cc1c[nH]c2ccccc12)C(=O)O)C(=O)O (stereo not drawn) [S,S monatin, 2-hydroxy-2-(indol-3-ylmethyl)-4-aminoglutaric acid] | 50-200 times | – | – | – | – | – | – | – | – | – | – | – | – | times sweeter than sucrose by weight ([1]; listed as S,S): 50-200 times; times sweeter than sucrose by weight ([1]; listed as S,S stereoisomer): 50-200 times
OC[C@H]1O[C@@](CO)(O[C@H]2O[C@H](CO)[C@@H](O)[C@H](O)[C@H]2O)[C@@H](O)[C@@H]1O [Sucrose, sucrose] | – | 116.9 | 2.3 | 17.9 | 24.9 | 2.3 | 8.0 | 64.1 | Sweet, rounded, warm | Slight bitterness and | Soft, balanced | 4.5 | 4.8 | Aftertaste [3, 7]: Slight lingering; Flavor Profile [3, 7]: Pleasant, citrus; Mouthfeel [3, 7]: Full, syrupy; Sweetness Profile [3, 7]: Fast onset and build; Average Score ([3]; score 1, poor-5, good, equisweet monatin/carbohydrate (50:50) blends, sucrose control): 4.0
OC[C@H]1O[C@H](O[C@]2(CCl)O[C@H](CCl)[C@@H](O)[C@@H]2O)[C@H](O)[C@@H](O)[C@H]1Cl [Sucralose, sucralose] | – | 119.7 | 2.1 | 16.0 | 33.1 | 2.6 | 8.0 | 64.6 | Sweet flavor, slightly | Slight licorice note | Zesty and refreshing | 3.8 | 4.1 | Comments (sensory evaluation) ([5]; Coffee, aspartame 250 ppm, sucralose 82 ppm, R,R monatin 25 ppm + maltodextrin or erythritol (1 g, 0.5%)): Slow sweetness onset allows stronger; Comments (sensory evaluation) ([5]; Iced Tea, aspartame 450 ppm, sucralose 170 ppm, R,R monatin 40 ppm + maltodextrin or erythritol (1 g, 0.5%)): Delay in sweetness onset means first; Aftertaste [4, 8]: Some sweetness; Mouthfeel [4, 8]: Slightly thinner than; Comments (sensory evaluation) ([6]; Cola, aspartame 550 ppm, sucralose 220 ppm, R,R monatin 45 ppm): Delay in sweetness onset means first; Comments (sensory evaluation) ([6]; Lemon/lime soft drink, aspartame 500 ppm, sucralose 200 ppm, R,R monatin 42 ppm): Slow sweetness onset allows stronger; Comments (sensory evaluation) ([6]; Orangeade, aspartame 550 ppm, sucralose 220 ppm, R,R monatin 45 ppm): Delay in sweetness onset means first
NC(CC(O)(Cc1c[nH]c2ccccc12)C(=O)O)C(=O)O (stereo not drawn) [R,R monatin, 2-hydroxy-2-(indol-3-ylmethyl)-4-aminoglutaric acid] | 2000-2400 times | – | – | – | – | – | – | – | – | – | – | – | – | times sweeter than sucrose by weight ([1]; listed as R,R): 2000-2400 times; times sweeter than sucrose by weight ([1]; listed as R,R stereoisomer): 2000-2400 times
